Holding throughout (conditions): read-out: pA2 (converted)
Experiment [1] deals with T1, Beta-1 adrenergic receptor (Cavia porcellus, UniProt B0FL73). Briefly: Competitive antagonist activity at beta-1 adrenergic receptor in guinea pig assessed as inhibition of isoproterenol-induced atrial beat rate. On the set-up: species or system Cardiac atrium.
Experiment [2] deals with Beta-2 adrenergic receptor (Cavia porcellus, UniProt Q8K4Z4). Briefly: Competitive antagonist activity at beta-2 adrenergic receptor in guinea pig assessed as inhibition of isoproterenol-induced tracheal relaxation.
Sequence of Beta-2 adrenergic receptor (Q8K4Z4 whole entry): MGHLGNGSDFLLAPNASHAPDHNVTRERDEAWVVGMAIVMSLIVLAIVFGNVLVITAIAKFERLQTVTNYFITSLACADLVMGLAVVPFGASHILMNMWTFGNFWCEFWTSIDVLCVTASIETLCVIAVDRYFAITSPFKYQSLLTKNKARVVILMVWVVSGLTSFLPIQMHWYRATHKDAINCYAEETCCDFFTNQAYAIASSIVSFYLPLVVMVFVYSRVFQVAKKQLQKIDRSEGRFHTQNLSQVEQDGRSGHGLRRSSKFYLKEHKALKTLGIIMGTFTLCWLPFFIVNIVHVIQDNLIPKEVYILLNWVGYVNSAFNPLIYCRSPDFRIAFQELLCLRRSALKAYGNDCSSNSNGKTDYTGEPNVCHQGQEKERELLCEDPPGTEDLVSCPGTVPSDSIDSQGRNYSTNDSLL
The target of experiment [3] is T1, Beta-1 adrenergic receptor. Briefly: Competitive antagonist activity at beta-1 adrenergic receptor in guinea pig assessed as inhibition of isoproterenol-induced atrial contractile force. On the set-up: species or system Cardiac atrium.

T1 sequence (B0FL73 whole entry): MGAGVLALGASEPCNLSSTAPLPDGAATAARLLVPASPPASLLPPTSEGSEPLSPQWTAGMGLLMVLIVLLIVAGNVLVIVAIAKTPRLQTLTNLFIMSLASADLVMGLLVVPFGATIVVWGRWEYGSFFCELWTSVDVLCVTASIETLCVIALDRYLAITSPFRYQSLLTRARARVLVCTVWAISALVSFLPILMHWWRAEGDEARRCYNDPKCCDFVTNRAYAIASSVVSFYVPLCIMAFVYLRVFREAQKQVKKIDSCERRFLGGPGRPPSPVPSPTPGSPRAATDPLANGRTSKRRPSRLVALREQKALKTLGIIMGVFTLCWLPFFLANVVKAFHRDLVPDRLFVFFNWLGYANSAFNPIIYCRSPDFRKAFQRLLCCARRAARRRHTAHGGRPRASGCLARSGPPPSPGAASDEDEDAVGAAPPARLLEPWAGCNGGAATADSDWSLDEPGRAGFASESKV

On to `CC(C)NCC(O)COc1ccc2[nH]cnc2c1` (stereo unspecified), for which the Kb in experiment [1] was 1000 nM; in experiment [2], 380 nM; in experiment [3] it was 851 nM.
On to `CC(C)NCC(O)COc1cccc2[nH]cnc12` (stereo unspecified), for which the figures for the Kb in experiment [1], in experiment [2] and in experiment [3] were 39.8 nM, 2.29 nM and 30.9 nM, respectively.

(Values after ChEMBL document CHEMBL3227933, “Synthesis and preliminary biological studies of 4- and 5-[2-hydroxy-3-(isopropylamino)propoxy]benzimidazoles: selective beta2 adrenergic blocking agents” (J Med Chem, 1979).)
